Laboratory results from patent US8026217B2, “Compositions and methods for treating neural anoxia and spreading depression” (Florida Atlantic University, priority 2007, dated 2011).
Entries after “also recorded” stand apart in the source; their conditions may differ. Read-outs that look alike come from different tables or passages of the source.

Experiments:
[1] = system: metathoracic ganglion of the locust; assay: SD-like events evoked by high-potassium (KCl 150 mM) injection into the locust metathoracic ganglion; format: in vivo, Locusta migratoria; conditions: for time to recover ventilatory central pattern generator (vCPG) function following SD: Example 5, NO synthase inhibitor and NO donors, FIG. 4G
Excerpt: CSD is increasingly accepted as a primary causative agent for migraine, particularly migraine with aura. The cellular mechanisms underlying stroke, seizures and migraine are not exclusive to mammals. Using the locust (Locusta migratoria), a proven model for examining the effects of heat stress on CNS activity, a rapid rise in extracellular potassium ([K^+]o) during anoxia/hypoxia, extreme heat, and ouabain exposure was monitored. This phenomenon has all the characteristics of SD in the neocortex of mammals. Since the physiological mechanisms observed in locust SD-like events are similar to that of mammals, findings in this insect model are predictably transferable to mammals, including humans. In the locust, model SD-like events were triggered in the CNS by injecting small volumes of saline containing high levels of potassium ions (KCl at 150 mM instead of the nominal resting level of 10 mM) into the metathoracic ganglion. Potassium-sensitive microelectrodes were used to measure SD generated by KCl injections, while manipulating the PKG pathway.
This tissue response is characterised by a transient surge and subsequent clearance of potassium ions in the extracellular space ([K^+]o). During SD-like events ventilatory motor activity ceases. This was monitored using an electromyographic electrode positioned on an abdominal muscle used for ventilation (Ventilatory EMG). Upon restoration of the potassium ion gradient the neural activity recovered and preparations began to ventilate again.
The first injection was used as a control. Following the first injection, animals were allowed 10 minutes of perfusion with standard locust saline before treatment with bath applications of selected drugs (i.e. KT5823, T-0156). All drugs were dissolved in a minimum amount of DMSO before further dilution with standard locust saline to a concentration of 10^−5M and were superfused over the metathoracic ganglion for 10 minutes before the second injection. A total of 20 minutes elapsed between the first and second injection in all experiments. As shown in Figure (Bi), duration at half the maximum amplitude was used to characterize the severity of SD-like events. A significant increase was observed following the second injection when compared to the first in control animals. […] Heat shock (HS) preconditioning reduced SD duration evoked by the first and second injections. […] Numbers in the histogram bars indicate number of preparations tested. Asterisks indicate statistically significant differences between the first and second injection ([…]).
Motor pattern activity was not measured for T-0156/Cantharidin treatments. […] Figure (Cii) illustrates the drug effects by showing the percentage difference in rhythm recovery time (second injection relative to first injection).
Single SD events were evoked by injection of saline (50 nL) containing elevated potassium chloride (150 mM vs. 10 mM) directly into the metathoracic ganglion. […] During SD, ventilatory motor activity monitored electromyographically (EMG) ceased and recovered upon restoration of the potassium ion gradient. The duration of the [K^+]o wave at half its maximal amplitude and the time from failure of motor patterning to the recovery of a ventilatory rhythm were measured. […] Numbers in brackets represent sample size.
As in Example 3, SD events were evoked by injection of saline (50 nL) containing elevated potassium chloride (150 mM vs. 10 mM) directly into the metathoracic ganglion of locust preparations.

[2] = system: NO-producing cells; assay: DAF2-DA staining of NO-producing cells in locust metathoracic ganglion; format: cell-based, Locusta migratoria; conditions: 100 μM; 3 minutes at 35° C.
Experimental: The pattern of cell staining was similar to that of NOS staining in Schistocerca gregaria and L. migratoria (Müller and Bicker, The Journal of Neuroscience 14:7521-7528, 1994; Bullerjahn and Pflüger, Zoology 106:3-17, 2003). The scale in the Figure is 500 μm. FIGS. 4B and 4C show fluorescing cell bodies at room temperature (20° C.) (4B) and immediately following exposure to heat (35° C.) (4C) (scale for both Figures is 50 μm). The change in fluorescence following exposure to heat was quantified as shown in FIG. 4D (3 minutes at 35° C., shown by bar above x-axis). The difference between cell body fluorescence and background more than doubled immediately following exposure to heat (t=5 minutes). […] Fluorescence was measured from the brightest 3 cells from each ganglion. [Sample sizes: Control, n=7; LNAME, n=4; and No heat, n=3. Asterisks indicate significant differences of control from LNAME and No heat groups (Tukey, p<0.05).]

[3] = system: PKG; assay: PKG enzyme activity assay on heads of treated flies; format: biochemical, Drosophila melanogaster; conditions: heads of sitter flies treated in vivo with volatilized agent; versus sham control
Experimental: PKG enzyme activity assays: PKG enzyme activity assays were conducted according to the procedure outlined in Kaun et al. (J Exp Biol. 210(Pt 20):3547-3558, 2007). Adult Drosophila were decapitated and the heads were homogenized in 25 mM 1-1 Tris (pH 7.4), 1 mM 1-1 EDTA, 2 mM 1-1 EGTA, 5 mM 1-1 β-mercaptoethanol, 0.05% Triton X-100 and protease inhibitor solution (Roche Diagnostics). Following microcentrifugation for 5 min, the supernatant was removed and those supernatants containing equal amounts of total protein were examined for PKG enzyme activity. The reaction mixture contained the following substances: 40 mM 1-1 Tris-HCl (pH 7.4), 20 mM 1-1 magnesium acetate, 0.2 mM 1-1 [γ^32P]ATP (500-1000 c.p.m. pmol−1), […] heptapeptide (RKRSRAE), (SEQ ID NO:6), (3 mM 1-1 cGMP and a highly specific inhibitor of cAMP-dependent protein kinase. The next step of the procedure involved incubating the reaction mixtures at a temperature of 30° C. for 10 min, followed by ending the reaction by spotting 70 μl of the reaction mixture onto Whatman P-81 filters. To remove any unreacted [γ^32P]ATP, these spots were then soaked with 75 mM 1-1 H3PO4 for 5 min and washed three times with 75 mM 1-1 H3PO4. Before quantifying enzyme activity, filters were rinsed with 100% ethanol and air dried. To calculate PKG enzyme activity, counts were taken in a Wallac 1409 Liquid Scintillation Counter using universal scintillation cocktail (ICN). PKG activity was presented in the figures as pmol of ^32P incorporated into the substrate min−1 mg−1 protein.

[4] = system: adult Drosophila melanogaster; format: in vivo; conditions: sitter adults, volatilized from DMSO 1 hr, 1 mM KT5823, 1 mM Cantharidin, 200 mM DCA, 10 mM 8-Bromo cGMP, 10 mM T-0156, versus DMSO sham
Experimental: FIG. 9 is a diagram illustrating in vivo treatment of adult Drosophila melanogaster with pharmacological agents. […] Adult sitters were exposed to various drugs known to target components of the PKG pathway (FIG. 8A). These drugs included: 10 mM T0156, a cGMP-specific phosphodiesterase-5 inhibitor, 10 mM 8-Bromo-cGMP, a PKG activator, 1 mM KT5823, a PKG inhibitor, 1 mM Cantharidin, a PP2A inhibitor, and 200 mM DCA, a K^+ channel activator. All drugs were solubilized in dimethyl sulfoxide (DMSO), where flies treated with only DMSO were used as sham controls. […] 10 μL of drug solution was applied to a crushed Kim wipe at the bottom of each 10 mL test vial. An additional Kim wipe was crushed over top of this to prevent direct contact between the fly and solution. 10 flies were then placed in the vial which was capped with a semi-permeable buzz-stopper, covered with a cut-out finger of a large latex glove to prevent chemical vapours from escaping, and incubated in the dark. The flies were subjected to the drug for 1 hr prior to each behavioural assay. In the drug combination experiments, 20 uL of DMSO was used as a control sham, and combinations of two pharmacological treatments were added as two separate 10 uL aliquots.
Whether or not fly PKG levels could be manipulated in vivo using a technique that uses volatilization of pharmacological agents was next examined. The role of these targets in vivo using sitter flies was examined by depositing pharmacological agents dissolved in DMSO on a cellulose tissue, and allowing them to volatize over minutes in an air tight vial at room temperature (FIG. 9). Adults were exposed to the volatilized compound for one hour in the dark and then assayed for locomotory resilience to acute hypoxia. Control sham animals (FIG. 7A) were treated with only DMSO. Compounds were chosen to target different components of the cGMP pathway (FIG. 8A) in tracheal smooth muscle and Chinese hamster ovary cells, where cGMP activates PKG, thereby activating PP2A, which then de-phosphorylates K^+ channels. The hypothesis that inhibition of this pathway would result in an increase in whole cell K^+ channel conductance, thereby leading to increased resilience to anoxic coma onset, was tested.
Locomotory Tolerance Assay during Acute Hypoxia: Ten flies (separated into males or females) from each of the three strains (rover [for^R], sitter [for^S] and for^s2) were selected and placed in three separate vials with food at least 24 hours before each experiment. At the time of the experiment, flies were emptied into 10 mL empty test vials covered with permeable sponge caps of equivalent thickness, allowing for consistent gas exchange. These test vials were then placed into a 600 mL beaker which was covered with parafilm, creating a closed chamber with an escape hole (1 cm diameter). The parafilm top was punctured with a needle connected to a gas tank (by a plastic hose), through which the inert gas argon was expelled. […] The needle tip was fastened to the bottom of the beaker and inserted into a larger sponge of similar texture to the vial sponge caps to ensure that gas expelled from the needle was dispersed equally throughout the beaker. Also, to ensure that all test vial positions in the beaker received equal gas flow, test vial positions were alternated every trial to reduce variability.
The experiment required exposing the test vials with 10 flies in the container to pure argon gas expelled from the tank at a flow rate of 600 cc/min+/−5%. Time of behavioural failure was recorded by observing the fly undergo a seizure, which was quickly followed by an anoxic coma.

[5] = system: mammals (mouse or rat); assay: Spreading depression in mammals; format: in vivo; conditions: expected
Excerpt: The pharmacological effects of a PDE5 inhibitor, 8-bromo-GMP, KT5823, and Cantharidin during spreading depression are examined in mammals (mouse or rat).

[6] = system: respiratory brain slices; assay: Neural function in respiratory brain slices during sodium azide-induced anoxia; set-up: species or system mouse or rat; conditions: expected
Excerpt: Neural function in mammals (mouse or rat) is examined pharmacologically during acute anoxia in respiratory brain slices via sodium azide, which chemically induces anoxia. Following administration of the sodium azide, the time until neural failure is monitored. This is done in the presence of a PDE5 inhibitor, 8-bromo-GMP, KT5823, and Cantharidin.

[7] = system: zebrafish; assay: Zebrafish behaviour during acute anoxia; format: in vivo; conditions: whole zebrafish in anoxic water post-treatment; expected
Excerpt: Vertebrate (zebrafish) behaviour is examined during acute anoxia. Whole zebrafish are exposed to anoxic water post-treatment with a PDE5 inhibitor, 8-bromo-GMP, KT5823, and Cantharidin. The time until the animal knocks out during anoxia is monitored.

Row | SMILES | time to recover ventilatory central pattern generator (vCPG) function following SD [1] | head PKG enzyme activity [3] | time to anoxic coma onset during acute hypoxia, single agents [4] | other results
1 | COC(=O)[C@@H](N)CCCNC(=N)N[N+](=O)[O-] [LNAME, N(G)-nitro-L-arginine methyl ester] | dramatically reduced the length of time taken to recover ventilatory central pattern generator (vCPG) function following SD |  |  | DAF2-DA cell body fluorescence in response to heat stress [2]: prevented the increased fluorescence in response to heat stress
2 | CC(=O)N[C@@H](C(=O)O)C(C)(C)SN=O [SNAP, S-nitroso-N-acetyl-D-penicillamine] | did not exacerbate recovery times beyond that of control preparation times |  |  | 
3 | COC(=O)c1c(-c2cc(OC)c(OC)c(OC)c2)c2ccnc(OCc3ncccn3)c2c(=O)n1Cc1ccnc(C)c1 [T-0156] |  | significant increase in PKG activity levels compared with sitter control shams; also recorded: demonstrated significant effects compared to that of the sham control | exhibited significant sensitivity to anoxic coma | length of time to recover ventilatory motor pattern activity after SD ([1]; Example 1, bath application 10^-5 M for 10 minutes before second KCl injection): took significantly longer to recover motor pattern activity after the second injection; recovery time of ventilatory rhythm, second event versus first ([1]; Example 3, drug applied for 10 minutes prior to second injection, FIG. 3D): The recovery time was increased; time to anoxic coma onset during acute hypoxia, single agents ([4]; listed as T0156): increased sensitivity to acute hypoxia
4 | CC12C(=O)OC(=O)C1(C)C1CCC2O1 (centres unmarked) [Cantharidin, Hexahydro-3a,7a-dimethyl-4,7-epoxyisobenzofuran-1,3-dione] |  | PKG activity levels did not differ; also recorded: showed no significant effects on PKG enzyme activity levels compared to sham controls | demonstrated significant resilience to anoxic coma | SD-like events and neural function [5]: neuroprotection and reduces SD-like events thereby prolonging neural function; time until neural failure [6]: neuroprotection and prolonged neural function when subject to anoxia; time until the animal knocks out during anoxia [7]: neuroprotection and prolonged behaviour when subject to anoxia
5 | N[C@@H](CCC(=O)N[C@@H](CSN=O)C(=O)NCC(=O)O)C(=O)O [SNOG, S-nitrosoglutathione] | did not exacerbate recovery times beyond that of control preparation times |  |  | 
